Data published in patent US9708314B2, “Heterocyclic amide compound” (NISSAN CHEMICAL INDUSTRIES, LTD., priority 2013, dated 2017).

Legend:
Assay type in all cases: in vivo
Cyperus difformis = test: Test Example 3: herbicidal effect by application to foliage (Wagner pot, water depth 0.1-0.5 cm); settings: Nineteenth Table; application to foliage; application herbicide amount 320 g/ha
In short: (§1)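 Rice-field weeds and directly sown rice were grown 14 days in flooded alluvial soil (water depth 0.1–0.5 cm) at 25–30 °C in a greenhouse. An emulsion formulation diluted to the stated g/ha rate was sprayed onto stems and leaves. Effects were scored on a 0–5 scale (herbicidal ratio bands) three weeks after treatment.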

[1] = system: Echinochloa crus-galli var. crus-galli; test: as above; settings: Nineteenth Table; application to foliage; application herbicide amount 320 g/ha
In short: as §1

Leptochloa chinensis = test: as above; settings: Nineteenth Table; application to foliage; application herbicide amount 320 g/ha
In short: as §1

Galium spurium = test: Test Example 4: herbicidal effect by application to foliage (diluvial soil, plastic box); settings: application to foliage, 320 g/ha
In short: (§2)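 Emulsion-formulated compound, diluted to a predetermined g/ha dose, applied by small sprayer to leaves and stems of 14-day-old seedlings grown in sterilized diluvial soil. Effect rated on 0–5 herbicidal-ratio scale three weeks on.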

Veronica persica = test: as above; settings: application to foliage, 320 g/ha
In short: as §2

Digitaria ciliaris = test: as above; settings: application to foliage, 320 g/ha
In short: as §2

Stellaria media = test: as above; settings: application to foliage, 320 g/ha
In short: as §2

Setaria viridis = test: as above; settings: application to foliage, 320 g/ha
In short: as §2

Alopecurus myosuroides = test: as above; settings: application to foliage, 320 g/ha
In short: as §2

Row | Structure (SMILES) | E (herbicidal effect grade) (Cyperus difformis) | H (herbicidal effect grade) [1] | D (herbicidal effect grade) (Leptochloa chinensis) | herbicidal effect, Q (Galium spurium) (Galium spurium) | herbicidal effect, R (Veronica persica) (Veronica persica) | herbicidal effect, F (Digitaria ciliaris) (Digitaria ciliaris) | herbicidal effect, P (Stellaria media) (Stellaria media) | herbicidal effect, G (Setaria viridis) (Setaria viridis) | herbicidal effect, J (Alopecurus myosuroides) (Alopecurus myosuroides)
1 | Cn1nnnc1NC(=O)c1ccc(C(F)(F)F)n2c(NCC(F)(F)F)nnc12 [2-081] | 5 (Herbicidal ratio of 90% or more (almost completely withered)) | 5 (Herbicidal ratio of 90% or more (almost completely withered)) | 5 (Herbicidal ratio of 90% or more (almost completely withered)) | 3 (Herbicidal ratio of 40% or more and less than 70%) | 4 (Herbicidal ratio of 70% or more and less than 90%) | 4 (Herbicidal ratio of 70% or more and less than 90%) | 5 (Herbicidal ratio of 90% or more (almost completely withered)) | 3 (Herbicidal ratio of 40% or more and less than 70%) | 1 (Herbicidal ratio of 5% or more and less than 20%)
2 | CC(C)N(C)c1nnc2c(C(=O)Nc3nnnn3C)ccc(C(F)(F)F)n12 [2-082] | 5 (Herbicidal ratio of 90% or more (almost completely withered)) | 5 (Herbicidal ratio of 90% or more (almost completely withered)) | 5 (Herbicidal ratio of 90% or more (almost completely withered)) | 4 (Herbicidal ratio of 70% or more and less than 90%) | 4 (Herbicidal ratio of 70% or more and less than 90%) | 5 (Herbicidal ratio of 90% or more (almost completely withered)) | 5 (Herbicidal ratio of 90% or more (almost completely withered)) | 5 (Herbicidal ratio of 90% or more (almost completely withered)) | 4 (Herbicidal ratio of 70% or more and less than 90%)
3 | CN(c1nnc2c(C(=O)Nc3nnnn3C)ccc(C(F)(F)F)n12)C1CCCCC1 [2-083] | 5 (Herbicidal ratio of 90% or more (almost completely withered)) | 4 (Herbicidal ratio of 70% or more and less than 90%) | 4 (Herbicidal ratio of 70% or more and less than 90%) | 3 (Herbicidal ratio of 40% or more and less than 70%) | 4 (Herbicidal ratio of 70% or more and less than 90%) | 5 (Herbicidal ratio of 90% or more (almost completely withered)) | 4 (Herbicidal ratio of 70% or more and less than 90%) | 4 (Herbicidal ratio of 70% or more and less than 90%) | 1 (Herbicidal ratio of 5% or more and less than 20%)
4 | Cn1nnnc1NC(=O)c1ccc(C(F)(F)F)n2c(SCC3CC3)nnc12 [2-084] | 5 (Herbicidal ratio of 90% or more (almost completely withered)) | 5 (Herbicidal ratio of 90% or more (almost completely withered)) | 5 (Herbicidal ratio of 90% or more (almost completely withered)) | 4 (Herbicidal ratio of 70% or more and less than 90%) | 3 (Herbicidal ratio of 40% or more and less than 70%) | 5 (Herbicidal ratio of 90% or more (almost completely withered)) | 5 (Herbicidal ratio of 90% or more (almost completely withered)) | 5 (Herbicidal ratio of 90% or more (almost completely withered)) | 3 (Herbicidal ratio of 40% or more and less than 70%)
5 | Cn1nnnc1NC(=O)c1ccc(C(F)(F)F)n2c(SCC3CCCO3)nnc12 (stereo not drawn) [2-085] | 4 (Herbicidal ratio of 70% or more and less than 90%) | 5 (Herbicidal ratio of 90% or more (almost completely withered)) | 5 (Herbicidal ratio of 90% or more (almost completely withered)) | 4 (Herbicidal ratio of 70% or more and less than 90%) | 4 (Herbicidal ratio of 70% or more and less than 90%) | 5 (Herbicidal ratio of 90% or more (almost completely withered)) | 5 (Herbicidal ratio of 90% or more (almost completely withered)) | 5 (Herbicidal ratio of 90% or more (almost completely withered)) | 3 (Herbicidal ratio of 40% or more and less than 70%)
6 | Cn1nnnc1NC(=O)c1ccc(C(F)(F)F)n2c(SCC#N)nnc12 [2-086] | 4 (Herbicidal ratio of 70% or more and less than 90%) | 5 (Herbicidal ratio of 90% or more (almost completely withered)) | 5 (Herbicidal ratio of 90% or more (almost completely withered)) | 4 (Herbicidal ratio of 70% or more and less than 90%) | 5 (Herbicidal ratio of 90% or more (almost completely withered)) | 5 (Herbicidal ratio of 90% or more (almost completely withered)) | 4 (Herbicidal ratio of 70% or more and less than 90%) | 5 (Herbicidal ratio of 90% or more (almost completely withered)) | 1 (Herbicidal ratio of 5% or more and less than 20%)
7 | CCN(CC)c1nnc2c(C(=O)Nc3nnnn3C)ccc(C(F)(F)F)n12 [2-089] | 4 (Herbicidal ratio of 70% or more and less than 90%) | 4 (Herbicidal ratio of 70% or more and less than 90%) | 5 (Herbicidal ratio of 90% or more (almost completely withered)) | 3 (Herbicidal ratio of 40% or more and less than 70%) | 5 (Herbicidal ratio of 90% or more (almost completely withered)) | 4 (Herbicidal ratio of 70% or more and less than 90%) | 5 (Herbicidal ratio of 90% or more (almost completely withered)) | 4 (Herbicidal ratio of 70% or more and less than 90%) | 2 (Herbicidal ratio of 20% or more and less than 40%)
8 | CCCn1nnnc1NC(=O)c1ccc(C(F)(F)F)n2c(C(C)C)nnc12 [2-090] | 5 (Herbicidal ratio of 90% or more (almost completely withered)) | 5 (Herbicidal ratio of 90% or more (almost completely withered)) | 4 (Herbicidal ratio of 70% or more and less than 90%) | 4 (Herbicidal ratio of 70% or more and less than 90%) | 3 (Herbicidal ratio of 40% or more and less than 70%) | 5 (Herbicidal ratio of 90% or more (almost completely withered)) | 5 (Herbicidal ratio of 90% or more (almost completely withered)) | 4 (Herbicidal ratio of 70% or more and less than 90%) | 3 (Herbicidal ratio of 40% or more and less than 70%)
